Experimental data taken from ChEMBL document CHEMBL4334432, “Development of benzochalcone derivatives as selective CYP1B1 inhibitors and anticancer agents” (Medchemcomm, 2019).

How the values were obtained:
Cytochrome P450 1A2 = molecular target: T1, Cytochrome P450 1A2 (Homo sapiens, UniProt P05177); experiment: Inhibition of recombinant human CYP1A2 expressed in supersomes using 7-ethoxyresorufin as substrate after 50 mins in presence of NADP+ by EROD assay; assay type: ADME
T1 sequence (P05177 whole entry): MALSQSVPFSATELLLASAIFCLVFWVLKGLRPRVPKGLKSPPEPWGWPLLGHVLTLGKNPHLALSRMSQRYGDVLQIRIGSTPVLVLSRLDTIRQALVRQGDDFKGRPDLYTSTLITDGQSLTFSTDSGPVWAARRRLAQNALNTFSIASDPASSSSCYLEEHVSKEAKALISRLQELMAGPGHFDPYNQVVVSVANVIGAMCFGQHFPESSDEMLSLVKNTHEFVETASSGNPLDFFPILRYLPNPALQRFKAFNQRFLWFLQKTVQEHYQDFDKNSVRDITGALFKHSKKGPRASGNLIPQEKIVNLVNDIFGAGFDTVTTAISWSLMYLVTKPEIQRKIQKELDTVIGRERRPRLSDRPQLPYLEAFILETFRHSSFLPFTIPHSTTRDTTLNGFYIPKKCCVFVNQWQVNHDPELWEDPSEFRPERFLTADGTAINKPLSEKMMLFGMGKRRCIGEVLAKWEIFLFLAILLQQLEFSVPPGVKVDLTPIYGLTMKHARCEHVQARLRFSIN

MCF7 [1] = experiment: cells; conditions: Homo sapiens, MCF7, 48 h
Description: Cytotoxicity against human MCF7 cells assessed as reduction in cell viability after 48 hrs by MTT assay

MCF7 [2] = experiment: Cytotoxicity against drug-resistant […]-induced human MCF7 cells overexpressing CYP1B1 assessed as reduction in cell viability after 48 hrs by MTT assay; assay type: functional, cell-based; conditions: MCF7, 48 h
MDA-MB-231 = experiment: cells; conditions: Homo sapiens, MDA-MB-231, 48 h
Description: Cytotoxicity against human MDA-MB-231 cells assessed as reduction in cell viability after 48 hrs by MTT assay

[3] = Cytotoxicity against drug-resistant human MDA-MB-435/LCC6MDR1 cells assessed as reduction in cell viability after 48 hrs by MTT assay; assay type: functional, cell-based; conditions: MDA-MB-435/LCC6 MDR1, 48 h
Cytochrome P450 1A1 = molecular target: T2, Cytochrome P450 1A1 (Homo sapiens, UniProt P04798); experiment: Inhibition of recombinant human CYP1A1 expressed in supersomes using 7-ethoxyresorufin as substrate after 15 mins in presence of NADP+ by EROD assay; assay type: ADME
T2 sequence (P04798 whole entry): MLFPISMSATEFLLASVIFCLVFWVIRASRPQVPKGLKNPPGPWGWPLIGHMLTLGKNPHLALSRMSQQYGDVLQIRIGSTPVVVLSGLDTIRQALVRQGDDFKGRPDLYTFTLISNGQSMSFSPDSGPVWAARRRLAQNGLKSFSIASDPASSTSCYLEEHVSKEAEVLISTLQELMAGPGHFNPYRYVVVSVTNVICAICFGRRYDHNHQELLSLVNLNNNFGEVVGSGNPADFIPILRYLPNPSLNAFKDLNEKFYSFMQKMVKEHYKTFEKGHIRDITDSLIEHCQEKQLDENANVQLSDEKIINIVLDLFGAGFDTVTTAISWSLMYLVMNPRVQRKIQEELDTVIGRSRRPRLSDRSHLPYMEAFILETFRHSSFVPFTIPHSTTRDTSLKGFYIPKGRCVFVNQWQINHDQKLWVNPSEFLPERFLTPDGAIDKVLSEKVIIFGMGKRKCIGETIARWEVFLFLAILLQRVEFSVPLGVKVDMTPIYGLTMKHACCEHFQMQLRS

Row | SMILES | IC50 (Cytochrome P450 1A2) [nM] | further results
1 | O=C(/C=C/c1cccnc1)c1ccc2ccccc2c1O | 227 | –
2 | COc1ccc(OC)c2c(O)c(C(=O)/C=C/c3ccccc3)cc(OC)c12 | 735 | –
3 | COc1ccc(OC)c2c(OC)c(/C=C/C(=O)c3ccc4ccccc4c3O)cc(OC)c12 | > 1000 | –
4 | O=c1[nH]cc(F)c(=O)[nH]1 [FLUOROURACIL] | – | IC50 (MCF7 [1]): > 100000 nM; IC50 (MCF7 [2]): > 100000 nM; IC50 (MDA-MB-231): 93800 nM; IC50 [3]: > 100000 nM
5 | O=C(/C=C/c1ccccc1)c1ccc2ccccc2c1 | > 1000 | IC50 (MCF7 [1]): 24700 nM; IC50 (MCF7 [2]): 18200 nM; IC50 (MDA-MB-231): 34100 nM; IC50 [3]: 19400 nM
6 | O=C(/C=C/c1ccc[nH]1)c1ccc2ccccc2c1O | > 1000 | –
7 | O=C(/C=C/c1ccccc1F)c1ccc2ccccc2c1O | > 1000 | –
8 | O=C(/C=C/c1ccc(F)cc1)c1ccc2ccccc2c1O | > 1000 | –
9 | COc1c(C(=O)/C=C/c2ccccc2)ccc2ccccc12 | > 1000 | –
10 | O=C(/C=C/c1ccncc1)c1ccc2ccccc2c1O | > 1000 | –
11 | O=C(/C=C/c1ccccc1Cl)c1ccc2ccccc2c1O | > 1000 | –
12 | O=c1cc(-c2ccccc2)oc2c1ccc1ccccc12 [ALPHA-NAPHTHOFLAVONE] | – | IC50 (MCF7 [1]): 80700 nM; IC50 (MCF7 [2]): > 100000 nM; IC50 (MDA-MB-231): > 100000 nM; IC50 (Cytochrome P450 1A1): 80.3 nM; IC50 [3]: 82300 nM
13 | Nc1nc(-c2ccccc2)cc(-c2ccc3ccccc3c2)n1 | > 1000 | –
14 | O=C(/C=C/c1ccccn1)c1ccc2ccccc2c1O | > 1000 | –
15 | O=C(/C=C/c1ccccc1O)c1ccc2ccccc2c1O | > 1000 | –
16 | O=C(/C=C/c1ccccc1)c1ccc2ccccc2c1O | > 1000 | –
17 | O=C(/C=C/c1ccc(Cl)cc1)c1ccc2ccccc2c1O | > 1000 | –
18 | O=C(/C=C/c1cccc(Cl)c1)c1ccc2ccccc2c1O | > 1000 | –
19 | O=C(/C=C/c1cccc(F)c1)c1ccc2ccccc2c1O | > 1000 | –
20 | O=C(CCc1ccccc1)c1ccc2ccccc2c1O | > 1000 | –
21 | COc1ccccc1/C=C/C(=O)c1ccc2ccccc2c1O | > 1000 | –
22 | Nc1c(C(=O)/C=C/c2ccccc2)ccc2ccccc12 | > 1000 | –
